# Entries after “also recorded” stand apart in the source; their conditions may differ.
# What was measured:
# Tyr mice [1] = test: Ultrasonic vocalizations (USV) and syntax, DeepSqueak; type: in vivo, mouse; design: key to NAP efficacy: speech impediments: corrections by NAP treatment (+)
# Description: USV: On P8, each pup was separated from the dam and placed in an empty cage for 6 minutes, in a quiet room and was recorded using the M500-384 USB Ultrasound Microphone (Petterson, Sweden). Pups were distinguished from one another using the tattoos listed above. After 6 minutes pups were reunited with its dam. Data were analyzed using DeepSqueak. Data were loaded onto DeepSqueak, frequencies between 40-70 kHz were analyzed using the mouse call network V2. Calls were denoised using post hoc denoising network. For syntax analysis, Syntax was classified using Wright K means network. Syntax transition probability charts were generated using DeepSqueak and Matlab. Further USV experiments were performed on P8 pups as previously described (12) with slight modifications.
# Tyr mice [2] = test: Fecal microbiota real-time PCR loads; type: in vivo, mouse; design: key to NAP efficacy: microbiota: corrections by NAP treatment (+)
# Description: Microbiome—Fecal samples were collected from 12.2±0.19-week-old mice. Samples were prepared and analyzed as previously described (57). Microbiome data was analyzed after applying the logarithmic transformation.
# [3] = system: SHANK3 mouse model (InsG3680 mutation); test: Social recognition test; type: in vivo; details: NAP-treated SHANK3 mouse model
# Description: To this end, mice with the ASD-linked InsG3680 mutation were used. Two behavioral assessments were performed on make mice: • 1) Open field behavior attesting to anxiety and depression (Open field behavioral assessment technology was previously described, e.g.); and • 2) Social recognition behavior, related to autistic traits (the social recognition test was previously described, e.g..
# In the social recognition test, the results measured both time exploring and frequency exploring the mouse or cup, either directly or in the chamber where the mouse or cup only are present (FIG. 13).
# Tyr mice [4] = test: AT8 (hyperphosphorylated Tau) immunohistochemistry; type: in vivo, mouse; design: key to NAP efficacy: tauopathy, hyperphosphorylated Tau deposits: corrections by NAP treatment (+)
# Description: AT8 Immunohistochemistry—experiment was performed as previously described (100). Mice were treated for 6 weeks with daily intranasal DD/NAP and were euthanized at 10.21±0.05 weeks of age.
# SHANK3 mice = test: Grooming (repetitive behavior); type: in vivo, mouse; details: sham-treated vs NAP-treated SHANK3 mice; data not shown
# Description: Repetitive behavior, a key autistic feature, was also evaluated by measuring grooming frequency and duration.
# [5] = Ivashko-Pachima and Gozes 2020; cited from earlier work
# male Tyr mice = test: Visual evoked potentials (VEP); type: in vivo, mouse; design: key to NAP efficacy: visual evoked potential: corrections by NAP treatment (+)
# Description: VEP—5.72±0.52-week-old male mice were used for VEP measurements. Animals were treated for 3 days with 0.1 ml S.C saline, recorded, and then followed by 4 daily S.C doses of either 1 μg NAP (in 0.1 ml saline) or 0.1 ml saline followed by another VEP recording.
# [6] = system: differentiated N1E-115 cells; test: FRAP of mCherry-Tau (Tau-MT interaction); type: cell-based, mouse
# Description: Cell culture—Mouse neuroblastoma NIE-115 cells were maintained in Dulbecco's modified Eagle's medium, 10% fetal bovine serum, 2 mM glutamine and 100 U ml—1 penicillin, […] ml—1 streptomycin (Biological Industries, Beit Haemek, Israel). The cells were incubated in 95% air/5% CO2 in a humidified incubator at 37° C.
# Cell differentiation and co-transfection of overexpression plasmids—Cultured NIE-115 cells were plated on 35 mm dishes (81156, 60μ-Dish, Ibidi, Martinsried, Germany) at a concentration of 1.25×10^4 cells per dish and then were differentiated with reduced fetal bovine serum (2%) and DMSO (1.25%) containing medium for 5 days before transfection. 48 hrs before experiments N1E-115 cells were co-transfected with 1 μg EB3-RFP or mCherry-Tau (3R) plasmid with or without 2 μg of plasmids, coding to GFP conjugated to full-length human ADNP, or ADNP carried mutations. 1:3 ratios between total amount of transfected DNA and transfection reagent were used according to manufacture guidance (Lipofectamine2000, Thermo Fisher Scientific, Waltham, MA, USA) in all subsequent experiments.
# Fluorescence recovery after photobleaching (FRAP)—Differentiated NIE-115 cells were transfected with mCherry-Tau with or without GFP-conjugated to full-length ADNP or mutated ADNP, and imaged 48 hrs after transfection. An ROI for photobleaching was drowned in the proximal cell branches. mCherry-Tau was bleached with a […], and fluorescence recovery was collected within wavelengths of 610-650 nm. 80 images were taken every 0.74 sec immediately after bleaching. After FRAP imaging all samples were also treated with NAP in final concentrations of 10^−12 M, and after 4 hrs time-lapse imaging was done again under the same conditions. FRAP imaging for assessment difference between NAP and SKIP (SEQ ID NO: 21) activity was performed after an hour of ZnCl2 treatment (400 μM final concentration; Sigma, Rehovot, Israel) with or without NAP/SKIP (10^−12 M final concentration). Fluorescence signals were quantified with Fiji, obtained data were normalized with easyFRAP [82, 83] and FRAP recovery curves were fitted by a one-phase exponential association function by GraphPad Prism6 (GraphPad Software, Inc., La Jolla, CA, USA) while samples with R^2<0.9 were excluded.
# Next, the effect of full-length/truncated ADNP forms with or without NAP treatment on Tau-MT interaction was examined by fluorescence recovery after photobleaching (FRAP) (FIGS. 8A-C). FRAP was performed with mCherry-tagged Tau protein (FIG. 8A). […] Therefore, the immobile mCherry-Tau fraction reflects the rate of Tau association with MTs.
# [7] = Tyr mouse, first symbol of cell
# [8] = male Tyr mice, 6 weeks daily intranasal NAP
smiles,measurement,setting,value
"CC[C@H](C)[C@H](NC(=O)[C@H](CO)NC(=O)[C@@H](NC(=O)[C@@H]1CCCN1C(=O)[C@H](C)NC(=O)[C@@H](N)CC(N)=O)C(C)C)C(=O)N1CCC[C@H]1C(=O)N[C@@H](CCC(N)=O)C(=O)O [NAP, NAPVSIPQ]",Number of syllables vocalized,"Tyr mice [1]; NAP-treated Tyr males, 8 for WT and Tyr",10
same,Syntax complexity,"Tyr mice [1]; P8 Tyr pups, both sexes",powerful corrective effect on both sexes; also recorded: significant improvement with NAP treatment
same,Total USVs produced,"Tyr mice [1]; P8 Tyr pups, females and males",no NAP effects
same,NAP efficacy: speech impediments,"Tyr mice [1]; Tyr mouse (syntax), first symbol of cell",+/+ (syntax)
same,Syntax,"Tyr mice [1]; WT pups, data not shown",minor varied impact
same,NAP efficacy: microbiota,Tyr mice [2]; [7],+/+
same,"EubV3, BIF, Lacto, Entero loads",Tyr mice [2]; WT mice,no effect on WT mice
same,Clostridium coccoides group (gCcoc) and Mouse intestinal Bacteroides (MIB) loads,"Tyr mice [2]; WT mice, data not shown",other varying effects
same,Bifidobacterium genus (BIF) load,Tyr mice [2]; female Tyr mice,NAP correction
same,Total eubacterial load (EubV3),Tyr mice [2]; male Tyr mice,corrected with NAP treatment
same,"Social recognition, mouse vs cup exploration",[3],normalization of behavior
same,Combined AT8- and AT180-positive cells,"Tyr mice [4]; Tyr mice, both sexes, data not shown",correction by NAP in both sexes
same,"NAP efficacy: tauopathy, hyperphosphorylated Tau deposits",Tyr mice [4]; [7],+/+
same,AT8 staining,"Tyr mice [4]; WT males, data not shown",did not display a NAP effect
same,Decrease of AT8 positive cells in the hippocampus,Tyr mice [4]; [8],~2.57 fold
same,Reversal of AT8 staining in the visual cortex,Tyr mice [4]; [8],~2 fold
same,Grooming frequency,SHANK3 mice,higher grooming frequency than did NAP-treated SHANK3 mice
same,Cell penetration,[5],bioavailable by endocytosis
same,NAP efficacy: visual evoked potential,male Tyr mice; [7],+/+
same,VEP traces,"male Tyr mice; male Tyr mice, 4 consecutive daily doses",normalizing these effects
same,Decrease of VEP P2 AUC,"male Tyr mice; male Tyr mice, 4 daily s.c. doses of 1 μg NAP, 100, 300 and 3000 mcd",1.6-2.3 fold
same,VEP N2 AUC,"male Tyr mice; male Tyr mice, 100, 300 and 3000 mcd",same significant change
same,VEP P3 AUC,"male Tyr mice; male Tyr mice, 300 and 3000 mcd",significant NAP effect
same,Tau-MT interaction (immobile mCherry-Tau fraction),"[6]; cells expressing ADNP p.Glu830synfs*83, 10^−12 M, 4 hrs",significantly increased
same,Tau-MT interaction (Tau immobile fraction),"[6]; cells expressing ADNP p.Lys408Valfs*31 SDM, 10^−12 M, 4 hrs",prevented by NAP treatment
same,Tau-MT interaction (immobile mCherry-Tau fraction),"[6]; cells expressing ADNP p.Ser404*, 10^−12 M, 4 hrs",significantly increased
same,Tau immobile fraction under zinc,"[6]; zinc 400 μM, 1 h, together with peptide 10^−12 M",excessive impact

# Source: patent publication US20250032580A1, “USE OF ADNF POLYPEPTIDES IN THERAPY” (RAMOT AT TEL-AVIV UNIVERSITY LTD., priority 2021, published 2025)
